Data published in publication PMC12858405, “Ideal efficacy photoswitching for chromocontrol of TRPC4/5 channel functions in live tissues” (Nature Chemical Biology, 2026).

Molecular target: T1, EA-activated TRPC5 (Mus musculus, UniProt Q9QX29)
T1 construct: expressed in transfected cells; host or cells: HEK293-mTRPC5-YFP
T1 sequence (Q9QX29 1-975): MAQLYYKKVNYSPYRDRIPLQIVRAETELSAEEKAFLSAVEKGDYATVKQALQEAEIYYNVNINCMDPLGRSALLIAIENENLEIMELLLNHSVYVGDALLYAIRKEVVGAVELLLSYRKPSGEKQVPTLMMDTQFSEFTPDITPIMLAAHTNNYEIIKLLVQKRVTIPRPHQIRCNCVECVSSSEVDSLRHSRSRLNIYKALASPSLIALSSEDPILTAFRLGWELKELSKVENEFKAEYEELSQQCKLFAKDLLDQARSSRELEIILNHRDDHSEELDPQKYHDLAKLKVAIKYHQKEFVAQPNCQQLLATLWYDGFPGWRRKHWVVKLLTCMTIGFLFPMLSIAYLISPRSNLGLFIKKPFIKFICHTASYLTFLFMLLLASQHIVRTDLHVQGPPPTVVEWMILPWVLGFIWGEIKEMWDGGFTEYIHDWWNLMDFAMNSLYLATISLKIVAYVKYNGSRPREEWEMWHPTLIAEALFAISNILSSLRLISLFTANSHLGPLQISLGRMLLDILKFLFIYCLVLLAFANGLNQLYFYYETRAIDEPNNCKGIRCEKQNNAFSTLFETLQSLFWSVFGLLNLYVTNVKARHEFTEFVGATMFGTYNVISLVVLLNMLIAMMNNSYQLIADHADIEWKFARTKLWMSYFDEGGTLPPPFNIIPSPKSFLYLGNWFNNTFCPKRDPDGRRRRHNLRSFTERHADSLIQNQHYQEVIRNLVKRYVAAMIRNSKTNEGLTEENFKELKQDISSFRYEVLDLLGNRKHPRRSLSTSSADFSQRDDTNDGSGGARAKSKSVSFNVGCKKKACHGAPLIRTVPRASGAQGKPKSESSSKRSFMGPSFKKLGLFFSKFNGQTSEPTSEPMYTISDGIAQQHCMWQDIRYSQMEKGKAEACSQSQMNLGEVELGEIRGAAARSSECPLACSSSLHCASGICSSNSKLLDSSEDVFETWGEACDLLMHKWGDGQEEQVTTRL
Assay: FLIPR Ca2+ assay, E isomers silencing EA-activated TRPC5 (HEK293-mTRPC5-YFP)
Type: cell-based
Text: Müller, Niemeyer, et al., Schaefer & Thorn-Seshold 2025: Ideal Efficacy Photoswitching of TRPC4/5 in Tissue but it can justify why the affinity of the E/Z-isomers may be similar.
(2) The EC50 values are reported as the midpoints of unconstrained sigmoidal fits to the FLIPR data (Fig 1l and Supplementary Fig. 2): with different levels of channel activation / blocking and very different Hill slopes across different compounds, isomers, and the two channels. This argues that the midpoint values only capture one of the several important factors describing the […]
We believe that it is possible to derive indicative relative values for binding affinity comparing the E and Z isomers of the same compound using only the combination of FLIPR and ephys data as reported in this paper; this analysis is being developed in a separate paper (see also below).
Supplementary Table 1. Potencies on TRPC4/5 depicted as either simple agonistic potency (blue) or else inhibitory […]
. Z*-values refer to mostly-Z-isomer reached at PSS at 365 nm, E*-values refer to experiments that initially applied 100% E-isomer (thermally relaxed), though in both cases the Ca2+ imaging in FLIPR with Fluo4-AM uses 470 nm excitation, which may over time promote photoswitching towards a PSS that is intermediate between those of pure-365 nm and all-E; this is controlled for in the more reliable ephys measurements). (Table indices: a, data from ref7; b, data from ref2; c, data from ref3; d, data from ref8.) EC50 [nM] (for simple agonism or EA-competitive inhibition)
E-AzPico 90 (vs 30 nM EA) 67 (vs 30 nM EA) […]
orange: inhibitory effect ag.: agonistic effect
1.1.1 From always-active antagonists and agonists towards efficacy photoswitches […]
photoisomerising an azobenzene that is merged in at the C’4 position yielding the compounds […]
inhibitory effect for the E-isomers (Supplementary Table 1). Essentially, the effects of Pico145 and AM237 are latent within a single (two-state reversibly photoswitchable) molecule. This combination is what we call an efficacy switch (also see main text Fig. 1e-j).
1.1.2 Mechanistic test for efficacy photoswitching […]
deliver (Fig. 1-2) is a powerful support for an efficacy switch interpretation. To indirectly support this further, we also measured the effects of E-AzPico and E-AzHC against EA-activated TRPC4/5.
Both E-isomers bind to TRPC4/5 and inhibit EA-evoked currents with nanomolar potencies (Supplementary Fig. 2, Supplementary Table 2). This supports the hypothesis that E- […]
to be an EA-competitive binder5,9,10), so their efficacy as single agent photoswitches results from E/Z-competitive binding that is determined by their PSS. […]
Supplementary Table 2. […] (a Inhibitory effect measured against 30 nM EA; b Inhibitory effect measured against 50 nM EA). […]

IC50 (Inhibitory IC50 (versus 30 nM EA) TRPC5, E isomer, thermally relaxed, 30 nM EA): 67 nM | IC50 (Inhibitory IC50 (versus 50 nM EA) TRPC5, E isomer, 50 nM EA): 69 nM
Compound: Cn1c(=O)n(CCCO)c(=O)c2c1nc(Oc1ccc(/N=N/c3ccccc3)c(OC(F)(F)F)c1)n2Cc1ccc(Cl)cc1 [E-AzPico]
